According to publication PMC8953266, “The Transthyretin/Oleuropein Aglycone Complex: A New Tool against TTR Amyloidosis” (Pharmaceuticals, 2022):

Assays:
[1] = biological target: T1, transthyretin (L55P-TTR) (Homo sapiens, UniProt P02766, L75P); assay: ligand fluorescence titration (blue shift of OleA emission); noisier, and no stabilization in urea unfolding; type: binding
T1 construct: recombinant L55P-TTR, homotetramer

[2] = biological target: T2, transthyretin (wt-TTR) (Homo sapiens, UniProt P02766); assay: ligand fluorescence titration (blue shift of OleA emission, fitted to a binding equilibrium); urea unfolding shows stabilization
T2 construct: recombinant wt-TTR, homotetramer

Kd [1]: 3.12 ± 0.62 µM
Kd [2]: 3.23 ± 0.32 µM
SMILES: C/C=C1/C(O)OC=C(C(=O)OC)[C@H]1CC(=O)OCCc1ccc(O)c(O)c1 (mixture of isomers) [OleA, oleuropein aglycone]
